Experimental findings from ChEMBL document CHEMBL1121871, “Azaprostaglandin analogues. Synthesis and biological properties of 11-azaprostaglandin derivatives” (1981) are described below.

One experiment is filed under the species Cavia porcellus. Put plainly: Tested for activity of the 250 ng/ml compound to inhibit ADP-induced aggregation in guinea pig platelet rich plasma; Inactive. The class given is functional, organism-based.
For experiment [1], the species on record is Rattus norvegicus. Put plainly: Compound was tested for its activity to stimulate rat uterus at concentration of 2-10 e-6 g/mL; Showed very little stimulation. The class given is functional, organism-based.
The species entered for experiment [2] is Rattus norvegicus. The experiment is described as follows: Tested for enhancement against rythemice contractions and tone of rat portal vein at concentrations ranging from 2*10e-6-1*10e-5 g/mL; Active. The class given is functional, organism-based.
Experiment [3] can be described thus: Compound was evaluated for the potency ratio in anesthetized rats. The class given is functional.

Activity calls are given as the source filed them. No cut-off for these calls is given here.

Regarding `CCCCC[C@@H](O)/C=C/[C@H]1NC(=O)C[C@@H]1CCCCCCC(=O)O`, the inhibition entry in the experiment listed under Cavia porcellus is “inactive”. Further, the Activity result in the experiment listed under Rattus norvegicus [1] was “very little stimulation”. For the same compound, the Enhancement result in the experiment listed under Rattus norvegicus [2] was “Active”. For the same compound, in experiment [3], the “Potency Ratio” value is 0.13.
